{
  "source": "patent US20230357168A1",
  "about": "“CARBOBICYCLIC NUCLEOSIDES FOR TREATMENT OF VIRAL INFECTION” (The Chinese University of Hong Kong, priority 2022, published 2023)",
  "test_system": "SARS-CoV-2 viral strains (including the original Wuhan strain and Delta and Omicron variants)",
  "experiment": "Replication of SARS-CoV-2 viral strains in A549-ACE2 cell model (FIG. 2)",
  "assay_type": "cell-based",
  "settings": "done in triplicate",
  "data": [
    {"smiles": "O=c1[nH]/c(=N\\O)ccn1[C@@H]1C2=CCC[C@@H](O)[C@@H]2[C@@H](O)[C@H]1O", "note": "[Compound 48, 4-(hydroxyimino)-1-((1R,2S,3R,3aR,4R)-2,3,4-trihydroxy-2,3,3a,4,5,6-hexahydro-1H-inden-1-yl)-3,4-dihydropyrimidin-2(1H)-one]", "values": [
      {"measurement": "replication of different SARS-CoV-2 viral strains", "result": "inhibits the replication"}
    ]}
  ]
}
